Experimental data taken from EP4389156A1, “RA[…] LIGAND COMPOUNDS AND PRECURSORS THEREOF” (Technische Universität München, priority 2022, dated 2024).
Values joined by “and” are separate entries in the source; they are usually repeats but may differ in a detail not shown here. Identical values can stand only once.

Experiments:
PSMA = target: T1, PSMA (Homo sapiens, UniProt Q04609); test: Competitive binding study, inverse IC50 (99mTc-radioligand versus increasing IBA-KuE); settings: inverse IC50: IBA-KuE competes against 99mTc-radioligand (0.2 nM/well); higher values = higher affinity; 1 h, 4°C, n = 3, mean ± SD; read-out: IC50, inv.
T1 construct: endogenous in cells; printed for the internalization assay of the same paragraph
Protocol: Competitive binding studies were carried out in analogy to a previously reported procedure. As a modification the non-radiolabeled standard competitor (((S)-1-carboxy-5-(4-(iodo)benzamido)pentyl)carbamoyl)-L-glutamic acid (IBA-KuE) was applied in increasing concentrations (10^-5 - 10^-11 M/well, n = 3 each) whereas the novel PSMA-binding compounds of interest were applied as ^99mTc-labeled radioligands (0.2 nM/well). In this inversed experimental approach, higher values correspond to higher affinities and are referred to as inverse IC50. Poly-L-lysine coated 24-well plates were used (n = 3). Data are given as mean ± SD. To determine the cellular uptake of the ^99mTc-labeled PSMA ligands into LNCaP cells by means of PSMA-mediated internalization at 1 h, a previously reported protocol was applied with assay concentrations of 1.0 nM and 0.2 nM for ^99mTc-labeled PSMA ligands and the reference compound [^125I]IBA-KuE, respectively. Data are corrected for non-specific binding and normalized to the specific internalization of the reference. Results are given as mean ± SD.

[1] = test system: LNCaP tumor-bearing CB17-SCID mice; test: Biodistribution study in LNCaP tumor-bearing mice; type: in vivo
Protocol: All animal experiments were conducted in accordance with general animal welfare regulations in Germany (German animal protection act, in the edition of the announcement, dated May 18th, 2006, as amended by Article 280 of June 19th 2020, approval no. ROB-55.2-1-2532.Vet_02-18-109 by the General Administration of Upper Bavaria) and the institutional guidelines for the care and use of animals. Male CB17-SCID mice were purchased from Charles River (Sulzfeld, Germany) and arrived at the in-house animal facility to acclimate at least 1 week before the start of the experiment. Tumor xenografts were established by subcutaneous inoculation of LNCaP cells (approx. 2 × 10^7 cells in 200 µL of a 1:1 mixture of Cultrex BME (R&D Systems, Minneapolis, United States) and DMEM/Ham's F-12) onto the right shoulder of 6-8 weeks old male CB17-SCID mice. The animals were used for experiments when tumors had grown to a size of 5-10 mm in diameter. Criteria for the exclusion of animals from the experiment were weight loss higher than 20%, tumor size above 1.5 cm^3, ulceration of the tumor, respiratory distress or change of behavior. […] Neither randomisation nor blinding was applied in the allocation of the experiments. Quarterly health monitoring was performed according to the FELASA recommendations.
Biodistribution Studies. The ^99mTc-labeled radioligands (2.7 ± 0.7 MBq, 82 ± 20 pmol) were injected into a lateral tail vein of LNCaP-tumor bearing mice (n = 4-5) under isoflurane anesthesia. Animals were sacrificed at 6 h post injection (p.i.) by carbon dioxide inhalation and blood withdrawal via cardiac puncture. Blood and tissues of interest were collected, weighed and the activity measured in a γ-counter. Radioligand uptake is given in percent of the injected dose per gram of tissue (% ID/g) and results are presented as mean ± SD.
In line with the above, the biodistribution study of [^99mTc]Tc-N4-PSMA-21 was carried out with n = 5 animals ("data set I"). […] Kidney uptake of mouse #3 (36.17 %ID/g) exceeded the value obtained from the other four animals (4.58 ± 1.44 %ID/g, mean ± SD) 7.9-fold or by more than 20 standard deviations. In addition, tumor uptake of mouse #3 (21.92 %ID/g) exceeded the value obtained from the other four animals (11.02 ± 2.22 %ID/g, mean ± SD) 2.0-fold or by more than 4 standard deviations Due to the uncertainty whether these huge deviations arise from an experimental error or might be related to strongly deviating metabolic processes e.g. abnormal kidney function in mouse #3, the study primarily presents and discusses the data set based on the other four animals (n = 4, "data set II"). A thorough evaluation and comparison was, however, also carried out including mouse #3.

[2] = 6 h p.i., male LNCaP tumor-bearing CB17-SCID mice, mean, n = 4-5
[3] = 6 h p.i., mean of ratios of individual animals, n = 4-5
[4] = 6 h p.i., relative to [^99mTc]Tc-PSMA-I&S

T1 sequence (Q04609 whole entry): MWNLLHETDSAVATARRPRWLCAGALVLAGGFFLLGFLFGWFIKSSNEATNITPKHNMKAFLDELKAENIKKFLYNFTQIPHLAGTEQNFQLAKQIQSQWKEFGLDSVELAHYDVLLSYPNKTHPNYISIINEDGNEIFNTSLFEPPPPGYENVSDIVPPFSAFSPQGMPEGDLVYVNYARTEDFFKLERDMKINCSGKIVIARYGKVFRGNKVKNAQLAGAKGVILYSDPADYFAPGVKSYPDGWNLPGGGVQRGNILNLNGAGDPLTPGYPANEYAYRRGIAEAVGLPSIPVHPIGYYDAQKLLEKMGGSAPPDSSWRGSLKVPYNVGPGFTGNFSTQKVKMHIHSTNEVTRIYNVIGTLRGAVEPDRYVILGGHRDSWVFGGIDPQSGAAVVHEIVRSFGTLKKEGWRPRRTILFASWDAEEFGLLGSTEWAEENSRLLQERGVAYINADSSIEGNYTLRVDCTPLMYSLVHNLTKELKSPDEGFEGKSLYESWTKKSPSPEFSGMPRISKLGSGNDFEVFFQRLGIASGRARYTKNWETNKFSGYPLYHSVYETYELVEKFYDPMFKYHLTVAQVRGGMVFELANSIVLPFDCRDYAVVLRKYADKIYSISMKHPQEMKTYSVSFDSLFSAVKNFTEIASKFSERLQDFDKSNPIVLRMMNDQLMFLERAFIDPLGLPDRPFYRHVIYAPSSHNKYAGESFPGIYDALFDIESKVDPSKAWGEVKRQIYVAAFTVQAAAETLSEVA

**Q.** Which inverse IC50 (PSMA) does the source give for CC(C)(C)[Si](O)(c1ccc(C(=O)NC[C@@H](NC(=O)[C@@H](CCC(=O)O)NC(=O)C(CNCCN)CNCCN)C(=O)N[C@H](CCCCNC(=O)CCC(=O)NCCC[C@@H](NC(=O)CC[C@H](NC(=O)N[C@@H](CCC(=O)O)C(=O)O)C(=O)O)C(=O)O)C(=O)O)cc1)C(C)(C)C.[O]=[99Tc+]=[O] [[^99mTc]Tc-N4-PSMA-12] here?
**A.** 11 ± 2.8 nM

**Q.** And the “uptake in % iD/g adrenals” value [1, 2]?
**A.** 0.6570 % ID/g

**Q.** And the “uptake in % iD/g blood” value [1, 2]?
**A.** 0.0200 ± 0.0044 % ID/g and 0.0200 % ID/g

**Q.** What about the “uptake in % iD/g bone” value [1, 2] of the same compound?
**A.** 0.0365 % ID/g

**Q.** What about the “uptake in % iD/g heart” value [1, 2] of the same compound?
**A.** 0.0274 % ID/g

**Q.** What about the “uptake in % iD/g intestine” value [1, 2] of the same compound?
**A.** 0.5391 % ID/g

**Q.** What about the “uptake in % iD/g kidney” value [1, 2] of the same compound?
**A.** 12.3 ± 8.0 % ID/g and 12.2924 % ID/g

**Q.** And the “uptake in % iD/g liver” value [1, 2]?
**A.** 0.1796 % ID/g

**Q.** What about the “uptake in % iD/g lung” value [1, 2] of the same compound?
**A.** 0.0613 % ID/g

**Q.** What about the “uptake in % iD/g muscle” value [1, 2] of the same compound?
**A.** 0.0110 % ID/g

**Q.** What about the “uptake in % iD/g pancreas” value [1, 2] of the same compound?
**A.** 0.0206 % ID/g

**Q.** What about the “uptake in % iD/g parotid gland” value [1, 2] of the same compound?
**A.** 0.0804 % ID/g

**Q.** What about the “uptake in % iD/g spleen” value [1, 2] of the same compound?
**A.** 0.8928 % ID/g

**Q.** What about the “uptake in % iD/g stomach” value [1, 2] of the same compound?
**A.** 0.0988 % ID/g

**Q.** What about the “uptake in % iD/g submandibular gland” value [1, 2] of the same compound?
**A.** 0.1450 % ID/g

**Q.** What about the “uptake in % iD/g tumor” value [1, 2] of the same compound?
**A.** 13.0231 % ID/g

**Q.** And the tumor-to-background ratio adrenals [1, 3]?
**A.** 22.15

**Q.** What about the tumor-to-background ratio blood [1, 3] of the same compound?
**A.** 658 ± 147 and 657.74

**Q.** And the tumor-to-background ratio bone [1, 3]?
**A.** 384.40

**Q.** What about the tumor-to-background ratio heart [1, 3] of the same compound?
**A.** 484.90

**Q.** And the tumor-to-background ratio intestine [1, 3]?
**A.** 57.76

**Q.** And the tumor-to-background ratio kidney [1, 3]?
**A.** 1.64 ± 1.29 and 1.64

**Q.** What about the tumor-to-background ratio liver [1, 3] of the same compound?
**A.** 79.92

**Q.** What about the tumor-to-background ratio lung [1, 3] of the same compound?
**A.** 216.68

**Q.** And the tumor-to-background ratio muscle [1, 3]?
**A.** 1265.34

**Q.** What about the tumor-to-background ratio pancreas [1, 3] of the same compound?
**A.** 637.21

**Q.** And the “tumor-to-background ratio parotid gland” value [1, 3]?
**A.** 177.38

**Q.** What about the tumor-to-background ratio spleen [1, 3] of the same compound?
**A.** 17.89

**Q.** And the tumor-to-background ratio stomach [1, 3]?
**A.** 158.87

**Q.** And the “tumor-to-background ratio submandibular gland” value [1, 3]?
**A.** 90.45

**Q.** What about the “fold T/blood-ratio in comparison with [^99mTc]Tc-PSMA-I&S” value [1, 4] of the same compound?
**A.** 3 fold

**Q.** And the “fold T/kidney-ratio in comparison with [^99mTc]Tc-PSMA-I&S” value [1, 4]?
**A.** 20 fold

**Q.** What about the “fold decrease of blood activity at 6 h p.i.” value ([1]; relative to [^99mTc]Tc-PSMA-I&S) of the same compound?
**A.** 3.6 fold
